Read-outs that look alike come from different tables or passages of the source.
Legend:
SphK2 = target: T1, SphK2 (Homo sapiens, UniProt Q9NRA0); assay: ADP-Glo kinase assay; assay type: biochemical
T1 construct: commercial enzyme from BPS Bioscience
T1 sequence (Q9NRA0 1-654): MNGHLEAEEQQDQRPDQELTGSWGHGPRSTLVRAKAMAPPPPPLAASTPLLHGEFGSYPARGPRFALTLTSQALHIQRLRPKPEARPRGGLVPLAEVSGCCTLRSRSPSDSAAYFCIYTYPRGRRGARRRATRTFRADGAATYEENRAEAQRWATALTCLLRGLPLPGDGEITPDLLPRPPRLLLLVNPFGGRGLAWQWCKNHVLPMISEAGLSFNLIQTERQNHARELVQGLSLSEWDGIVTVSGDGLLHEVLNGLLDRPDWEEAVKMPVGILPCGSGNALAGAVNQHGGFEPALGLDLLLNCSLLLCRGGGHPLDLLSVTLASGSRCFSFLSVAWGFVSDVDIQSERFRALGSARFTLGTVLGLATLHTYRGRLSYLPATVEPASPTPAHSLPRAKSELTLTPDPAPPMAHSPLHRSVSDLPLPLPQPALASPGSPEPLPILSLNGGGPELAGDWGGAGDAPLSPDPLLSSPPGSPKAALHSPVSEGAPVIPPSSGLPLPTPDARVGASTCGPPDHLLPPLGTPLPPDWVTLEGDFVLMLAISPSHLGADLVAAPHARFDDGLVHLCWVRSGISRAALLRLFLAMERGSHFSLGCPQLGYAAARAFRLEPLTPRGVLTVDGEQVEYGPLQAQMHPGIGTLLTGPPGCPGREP
Description: ADP-Glo kinase assay on SphK2

SphK1 = target: T2, SphK1 (Homo sapiens, UniProt Q9NYA1); assay: ADP-Glo kinase assay; assay type: biochemical
T2 construct: commercial enzyme from BPS Bioscience; human given only for the docking structure 3VZB
T2 sequence (Q9NYA1 whole entry): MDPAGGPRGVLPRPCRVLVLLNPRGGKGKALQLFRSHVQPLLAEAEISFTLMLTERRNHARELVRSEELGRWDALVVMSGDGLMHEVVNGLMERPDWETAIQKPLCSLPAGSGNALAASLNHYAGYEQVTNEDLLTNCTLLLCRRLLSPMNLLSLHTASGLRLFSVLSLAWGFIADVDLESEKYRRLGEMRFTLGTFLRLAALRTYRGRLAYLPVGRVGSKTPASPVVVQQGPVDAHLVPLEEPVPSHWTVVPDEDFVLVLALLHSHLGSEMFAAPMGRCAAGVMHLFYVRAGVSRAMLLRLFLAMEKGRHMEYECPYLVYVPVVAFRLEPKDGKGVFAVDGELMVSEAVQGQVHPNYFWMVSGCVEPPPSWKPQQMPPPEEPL

Row | IC50 (SphK2; 1 µM sphingosine, 150 µM ATP, 5 mM MgCl2, pH 7.2, 1% DMSO, 1 h, room temperature) [µM] | IC50 (SphK1) [µM] | IC50 (SphK2) [µM] | Compound
1 | 19.9 | – | – | CCCCCCCCCCCCC/C=C/[C@@H](O)[C@H](CO)N(C)C [N,N-dimethylsphingosine]
2 | – | 58.2 | > 100 | CCCCCCCCCCCC[C@@H]1CC[C@H](N)[C@@H]1O [4a, (1R,2S,5R)-2-Amino-5-dodecylcyclopentan-1-ol]

More lines, now with the values behind:

Row | Compound | IC50 (SphK2; 1 µM sphingosine, 150 µM ATP, 5 mM MgCl2, pH 7.2, 1% DMSO, 1 h, room temperature) [µM] | IC50 (SphK1) [µM] | IC50 (SphK2) [µM]
3 | CCCCCCCCCCCCCC[C@@H]1OC[C@H](N)[C@@H]1O [compound 1, pachastrissamine] | – | 12 | 41.8
4 | CCCCCCCCCCCCCC[C@@H]1CC[C@H](N)[C@@H]1O [4b, (1R,2S,5R)-2-Amino-5-tetradecylcyclopentan-1-ol] | – | 7.5 | 20.1
5 | CCCCCCCCCCCCCCCC[C@@H]1CC[C@H](N)[C@@H]1O [4c, (1R,2S,5R)-2-Amino-5-hexadecylcyclopentan-1-ol] | – | 41.3 | > 100
